Key:
Cytochrome P450 1A2 = target: T1, Cytochrome P450 1A2 (Homo sapiens, UniProt P05177); conditions: bti-tn-5b1-4; also: in other assays of this panel Not Active means under 50% inhibition at 10 µM
T1 sequence (P05177 whole entry): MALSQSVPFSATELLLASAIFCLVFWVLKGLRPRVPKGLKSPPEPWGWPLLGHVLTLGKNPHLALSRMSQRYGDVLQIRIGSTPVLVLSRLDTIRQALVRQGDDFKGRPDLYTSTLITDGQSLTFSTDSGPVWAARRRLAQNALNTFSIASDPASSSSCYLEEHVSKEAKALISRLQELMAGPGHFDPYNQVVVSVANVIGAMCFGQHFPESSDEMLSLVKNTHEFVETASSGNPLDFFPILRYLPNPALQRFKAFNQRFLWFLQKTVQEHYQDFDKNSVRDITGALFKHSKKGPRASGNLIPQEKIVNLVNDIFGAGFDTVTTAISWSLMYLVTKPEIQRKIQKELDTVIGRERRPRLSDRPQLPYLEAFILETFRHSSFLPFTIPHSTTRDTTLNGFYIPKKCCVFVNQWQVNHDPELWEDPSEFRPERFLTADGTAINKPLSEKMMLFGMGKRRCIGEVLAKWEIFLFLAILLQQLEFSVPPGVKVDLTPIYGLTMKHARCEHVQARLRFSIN

[1] = target: T2, 5-hydroxytryptamine receptor 1A (Rattus norvegicus, UniProt P19327); format: cell membranes, CHO-K1, Membrane; conditions: for Ki: read-out: Ki; as to all read-outs here: in other assays of this panel Not Active means under 50% inhibition at 10 µM
T2 sequence (P19327 whole entry): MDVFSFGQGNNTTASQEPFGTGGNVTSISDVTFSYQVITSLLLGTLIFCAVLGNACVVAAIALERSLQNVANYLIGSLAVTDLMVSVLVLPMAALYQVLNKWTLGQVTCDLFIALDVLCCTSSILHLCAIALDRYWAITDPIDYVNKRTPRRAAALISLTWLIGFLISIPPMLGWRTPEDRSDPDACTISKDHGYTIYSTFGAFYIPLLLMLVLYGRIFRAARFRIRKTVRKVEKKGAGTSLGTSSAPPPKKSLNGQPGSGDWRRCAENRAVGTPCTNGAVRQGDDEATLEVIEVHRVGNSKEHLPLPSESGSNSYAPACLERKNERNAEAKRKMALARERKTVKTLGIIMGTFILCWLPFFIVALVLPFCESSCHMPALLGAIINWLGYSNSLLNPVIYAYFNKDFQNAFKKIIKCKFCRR

[2] = DRUGMATRIX: ATPase, Na+/K+ enzyme inhibition (substrate: ATP); format: tissue-based, Sus scrofa, Heart; conditions: Not Active = under 50% inhibition at 10 µM
[3] = target: T3, Neuropeptide Y receptor type 2 (Homo sapiens, UniProt P49146); format: cell membranes, KAN-TS, Membrane; conditions: kan-ts; also: in other assays of this panel Not Active means under 50% inhibition at 10 µM
T3 sequence (P49146 whole entry): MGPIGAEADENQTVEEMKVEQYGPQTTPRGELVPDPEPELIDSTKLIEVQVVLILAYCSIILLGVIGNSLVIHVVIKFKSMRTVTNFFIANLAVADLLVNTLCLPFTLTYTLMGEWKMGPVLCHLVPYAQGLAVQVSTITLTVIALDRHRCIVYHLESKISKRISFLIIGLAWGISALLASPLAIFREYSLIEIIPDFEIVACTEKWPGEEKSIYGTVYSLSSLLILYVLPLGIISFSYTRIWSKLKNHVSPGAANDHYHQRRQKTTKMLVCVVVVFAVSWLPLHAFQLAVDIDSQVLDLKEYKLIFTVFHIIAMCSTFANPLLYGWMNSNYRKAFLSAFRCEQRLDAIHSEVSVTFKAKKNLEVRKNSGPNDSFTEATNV

[4] = target: T4, Amine oxidase [flavin-containing] A (Homo sapiens, UniProt P21397); test: DRUGMATRIX: Monoamine Oxidase MAO-A enzyme inhibition (substrate: Kynuramine); parameters: species or system BTI-TN-5B1-4; conditions: bti-tn-5b1-4; Not Active = under 50% inhibition at 10 µM
T4 sequence (P21397 whole entry): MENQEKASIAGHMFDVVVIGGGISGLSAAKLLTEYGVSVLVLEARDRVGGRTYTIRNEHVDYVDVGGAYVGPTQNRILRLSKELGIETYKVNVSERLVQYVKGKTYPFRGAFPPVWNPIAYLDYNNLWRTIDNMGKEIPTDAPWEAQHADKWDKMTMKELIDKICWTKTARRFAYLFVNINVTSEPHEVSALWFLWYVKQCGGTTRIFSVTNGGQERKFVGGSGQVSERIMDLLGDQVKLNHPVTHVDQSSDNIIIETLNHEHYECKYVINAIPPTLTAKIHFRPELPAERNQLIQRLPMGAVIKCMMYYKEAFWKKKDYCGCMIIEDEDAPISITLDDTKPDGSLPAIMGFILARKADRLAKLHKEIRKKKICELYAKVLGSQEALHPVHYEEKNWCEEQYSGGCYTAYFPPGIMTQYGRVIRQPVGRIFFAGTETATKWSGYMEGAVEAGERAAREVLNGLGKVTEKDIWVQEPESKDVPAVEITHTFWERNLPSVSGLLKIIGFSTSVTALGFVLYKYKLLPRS

[5] = target: T5, C-C chemokine receptor type 4 (Homo sapiens, UniProt P51679); format: cell membranes, Membrane; conditions: chem-1; also: in other assays of this panel Not Active means under 50% inhibition at 10 µM
T5 sequence (P51679 whole entry): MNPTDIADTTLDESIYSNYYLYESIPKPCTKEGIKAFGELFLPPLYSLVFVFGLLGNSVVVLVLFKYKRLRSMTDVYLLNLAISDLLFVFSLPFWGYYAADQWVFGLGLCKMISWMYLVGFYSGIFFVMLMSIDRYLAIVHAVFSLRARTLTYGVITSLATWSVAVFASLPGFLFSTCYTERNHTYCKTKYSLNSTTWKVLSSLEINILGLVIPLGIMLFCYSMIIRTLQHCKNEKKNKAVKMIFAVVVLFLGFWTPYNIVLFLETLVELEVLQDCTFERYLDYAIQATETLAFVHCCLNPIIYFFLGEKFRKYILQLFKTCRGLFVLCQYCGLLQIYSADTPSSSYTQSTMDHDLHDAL

[6] = target: C-C chemokine receptor type 5 (Homo sapiens, UniProt P51681); format: cell membranes, Membrane; conditions: hek293; also: in other assays of this panel Not Active means under 50% inhibition at 10 µM
Sequence of C-C chemokine receptor type 5 (P51681 whole entry): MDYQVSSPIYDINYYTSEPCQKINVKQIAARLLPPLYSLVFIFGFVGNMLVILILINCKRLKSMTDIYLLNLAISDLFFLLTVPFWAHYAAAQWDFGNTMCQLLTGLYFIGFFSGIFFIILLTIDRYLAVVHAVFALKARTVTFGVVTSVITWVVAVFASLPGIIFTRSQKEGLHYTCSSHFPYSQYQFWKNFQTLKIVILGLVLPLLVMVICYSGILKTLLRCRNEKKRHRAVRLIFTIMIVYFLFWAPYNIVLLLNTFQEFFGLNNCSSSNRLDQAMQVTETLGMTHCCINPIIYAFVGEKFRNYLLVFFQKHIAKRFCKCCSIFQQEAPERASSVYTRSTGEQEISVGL

SMILES | IC50 (Cytochrome P450 1A2) | Ki (Cytochrome P450 1A2) | IC50 ([1]; cho-k1) | IC50 [2] | Ki [2] | IC50 [3] | IC50 [4] | IC50 [5] | IC50 [6] | IC50 ([2]; read-out: IC50) [nM] | IC50 ([1]; read-out: IC50) [nM] | Ki [1] [nM]
O=C(c1ccccc1C(F)(F)F)N1CCC(Cc2ccccc2)CC1 | Not Active | Not Active | Not Active | Not Active | Not Active | Not Active | Not Active | Not Active | Not Active |  |  | 
COc1ccc(C(=O)N2CCCC2=O)cc1 | Not Active | Not Active | Not Active | Not Active | Not Active | Not Active | Not Active | Not Active | Not Active |  |  | 
NCCCC(O)(P(=O)(O)O)P(=O)(O)O [ALENDRONIC ACID] |  |  | Not Active | Not Active | Not Active | Not Active | Not Active | Not Active | Not Active |  |  | 
CN1[C@@H]2CC[C@H]1C[C@@H](OC(=O)C(CO)c1ccccc1)C2 (stereo partly specified) [ATROPINE] |  |  | Not Active | Not Active | Not Active | Not Active | Not Active | Not Active | Not Active |  |  | 
C#C[C@]1(OC(C)=O)CC[C@H]2[C@@H]3CCC4=C[C@@H](OC(C)=O)CC[C@@H]4[C@H]3CC[C@@]21C [ETHYNODIOL DIACETATE] | Not Active | Not Active | Not Active | Not Active | Not Active | Not Active |  | Not Active | Not Active |  |  | 
COc1cc([C@@H]2c3cc4c(cc3[C@@H](O[C@@H]3O[C@@H]5CO[C@@H](C)O[C@H]5[C@H](O)[C@H]3O)[C@H]3COC(=O)[C@H]23)OCO4)cc(OC)c1O [ETOPOSIDE] |  |  | Not Active | Not Active | Not Active | Not Active | Not Active | Not Active | Not Active |  |  | 
COc1ccc2c3c1O[C@H]1C[C@@H](O)C=C[C@@]31CCN(C)C2 [GALANTAMINE] |  |  | Not Active | Not Active | Not Active | Not Active | Not Active | Not Active | Not Active |  |  | 
CC(C)=CCC/C(C)=C/CO [GERANIOL] |  |  | Not Active | Not Active | Not Active | Not Active | Not Active | Not Active | Not Active |  |  | 
Oc1c(Cl)cc(Cl)c(Cl)c1Cc1c(O)c(Cl)cc(Cl)c1Cl [HEXACHLOROPHENE] |  |  | Not Active |  |  | Not Active | Not Active | Not Active | Not Active | 6130 |  | 
CC(=O)[C@@]1(O)CC[C@H]2[C@@H]3CCC4=CC(=O)CC[C@]4(C)[C@H]3CC[C@@]21C [HYDROXYPROGESTERONE] |  |  | Not Active | Not Active | Not Active | Not Active | Not Active | Not Active | Not Active |  |  | 
O=c1cc(N2CCOCC2)oc2c(-c3ccccc3)cccc12 [LY-294002] |  |  | Not Active | Not Active | Not Active | Not Active | Not Active | Not Active | Not Active |  |  | 
CC(C)NCC(O)COc1cccc2[nH]ccc12 (stereo unspecified) [PINDOLOL] |  |  |  | Not Active | Not Active | Not Active | Not Active | Not Active | Not Active |  | 48 | 27
CCn1cc(C(=O)O)c(=O)c2cnc(N3CCCC3)nc21 [PIROMIDIC ACID] |  |  | Not Active | Not Active | Not Active | Not Active | Not Active | Not Active | Not Active |  |  | 
CCCNCC(O)COc1ccccc1C(=O)CCc1ccccc1 (stereo unspecified) [PROPAFENONE] |  |  |  | Not Active | Not Active | Not Active | Not Active | Not Active | Not Active |  | 1640 | 935
CC(C)c1cccc(C(C)C)c1O [PROPOFOL] |  |  | Not Active | Not Active | Not Active | Not Active | Not Active | Not Active | Not Active |  |  | 
